Measurements as given in patent US10357514B2, “Treatment of cancer using anti-CD19 Chimeric Antigen Receptor” (The Trustees of the University of Pennsylvania, priority 2014, dated 2019).
Marks after values point to notes of the source that are not given here.

How the values were obtained:
Format in all cases: in vivo, human
[1] = system: PD-1-positive CD4 and CD8 and PD-1-negative CD4 T cells; test: FACS analysis of PD-1 on T cells in PBMC samples of subjects given RAD001
B/Brisbane/60/2008 = test: Hemagglutination inhibition titer and seroconversion after 2012 seasonal influenza vaccination; settings: for HI GMT ratio, B: GMT at week 4 post vaccination/GMT at baseline; for Percent of subjects with seroconversion, B: 4 weeks after vaccination
Text: (§1) Results were expressed as fluorescence intensity.
(§2) The primary analysis of geometric mean titer ratios was done using a normal Bayesian regression model with non-informative priors. This model was fitted to each antibody titer on the log scale. The primary outcome in each model was the Day 84 measurement. The Day 63 measurement was included in the outcome vector. The model fitted using SAS 9.2 proc mixed with the prior statement. The covariance structure of the matrix was considered as unstructured (option type=UN). A flat prior was used. For the secondary analysis of seroconversion rates, logistic regression was used.
(§3) The ability of RAD001 to improve immune function in elderly volunteers was evaluated by measuring the serologic response to the 2012 seasonal influenza vaccine. The hemagglutination inhibition (HI) geometric mean titers (GMT) to each of the 3 influenza vaccine strains at baseline and 4 weeks after influenza vaccination are provided in Table 10. The primary analysis variable was the HI GMT ratio (4 weeks post vaccination/baseline). […] This endpoint was chosen because a 1.2-fold increase in the influenza GMT ratio induced by the MF-59 vaccine adjuvant was associated with a decrease in influenza illness (Iob, A et al. (2005) Epidemiol Infect 133:687-693).
(§4) Rates of seroconversion 4 weeks after influenza vaccination were also evaluated. Seroconversion was defined as the change from a negative pre-vaccination titer (i.e., HI titer <1:10) to post-vaccination HI titer ≥1:40 or at least 4-fold increase from a non-negative (≥1:10) pre-vaccination HI titer.

[2] = system: H1N1 A/California/07/2009; test: as above; settings: for HI GMT ratio, A/H1N1: GMT at week 4 post vaccination/GMT at baseline; for Percent of subjects with seroconversion, H1N1: 4 weeks after vaccination
Text: as §1, §2, §3, §4

H3N2 A/Victoria/210/2009 = test: as above; settings: for HI GMT ratio, A/H3N2: GMT at week 4 post vaccination/GMT at baseline; for Percent of subjects with seroconversion, H3N2: 4 weeks after vaccination
Text: as §1, §2, §3, §4

pneumococcal serotypes = test: Antibody titers after pneumococcal vaccination (Pneumovax 23); settings: 7 serotypes measured; all 3 RAD cohorts
Protocol: Elderly volunteers >=65 years of age were randomized to one of the 3 RAD001 treatment groups (50 subjects per arm) or placebo (20 subjects per arm). Subjects were treated with study drug for 6 weeks, given a 2 week break, and then received influenza (Aggrippal, Novartis) and pneumoccal (Pneumovax 23, Merck), vaccinations. Response to influenza vaccination was assessed by measuring the geometric mean titers (GMTs) by hemagglutination inhibition assay to the 3 influenza strains (H1N1, H3N2 and B influenza subtypes) in the influenza vaccine 4 weeks after vaccination. The primary endpoints of the study were (1) safety and tolerability and (2) a 1.2 fold increase in influenza titers as compared to placebo in 2/3 of the influenza vaccine strains 4 weeks after vaccination. This endpoint was chosen because a 1.2 fold increase in influenza titers is associated with a decrease in influenza illness post vaccination, and therefore is clinically relevant. […] The pneumococcal vaccine contains antigens from 23 pneumococcal serotypes. Antibody titers to 7 of the serotypes were measured in our subjects.

[3] = system: PD-1 positive CD4 and CD8 T cells; test: Immunophenotyping of PBMC by flow cytometry
[4] = system: A/H3N2 strain A/Victoria/361/11; test: HI titer and seroconversion to heterologous influenza strain; settings: for Percentage of subjects who seroconvert to heterologous strain A/H3N2 A/Victoria/361/11: 4 weeks after seasonal influenza vaccination
[5] = week 6, pooled cohort, adjusted for baseline PD-1
[6] = week 12, pooled cohort, adjusted for baseline PD-1
[7] = week 12, 0.5 mg/Day, 5 mg/Week and 20 mg/Week cohorts
[8] = Baseline (2 weeks prior to influenza vaccination), 0.5 mg daily, N = 50
[9] = Baseline (2 weeks prior to influenza vaccination), 5 mg weekly, N = 49
[10] = Baseline (2 weeks prior to influenza vaccination), 20 mg weekly, N = 49
[11] = Intention to Treat Population, 0.5 mg, N = 48
[12] = Intention to Treat Population, 5 mg, N = 49
[13] = Intention to Treat Population, 20 mg, N = 48
[14] = Subjects with Baseline Titers <=40, 0.5 mg
[15] = Subjects with Baseline Titers <=40, 5 mg
[16] = Subjects with Baseline Titers <=40, 20 mg
[17] = Week 4 after influenza vaccination, 0.5 mg daily, N = 50
[18] = Week 4 after influenza vaccination, 5 mg weekly, N = 49
[19] = Week 4 after influenza vaccination, 20 mg weekly, N = 49

Compound: CO[C@H]1C[C@@H]2CC[C@@H](C)[C@@](O)(O2)C(=O)C(=O)N2CCCC[C@H]2C(=O)O[C@H]([C@H](C)C[C@@H]2CC[C@@H](OCCO)[C@H](OC)C2)CC(=O)[C@H](C)/C=C(\C)[C@@H](O)[C@@H](OC)C(=O)[C@H](C)C[C@H](C)/C=C/C=C/C=C/1C [RAD001, (1R,9S,12S,15R,16E,18R,19R,21R,23S,24E,26E,28E,30S,32S,35R)-1,18-dihydroxy-12-{(1R)-2-[(1S,3R,4R)-4-(2-hydroxyethoxy)-3-methoxycyclohexyl]-1-methylethyl}-19,30-dimethoxy-15,17,21,23,29,35-hexamethyl-11,36-dioxa-4-aza-tricyclo[30.3.1.04,9]hexatriaconta-16,24,26,28-tetraene-2,3,10,14,20-pentaone]
- decrease in PD-1+ CD4 T cells compared to placebo [1, 5]: 30.2%
- decrease in PD-1-positive CD8 T cells compared to placebo [1, 5]: 37.4%
- decrease in PD-1-positive CD4 T cells compared to placebo [1, 6]: 32.7%
- decrease in PD-1-positive CD8 T cells compared to placebo [1, 6]: 41.4%
- decrease in PD-1-positive CD4 T cells as compared to placebo [1, 7]: −37.1-−28.5%
- decrease in PD-1-positive CD8 T cells as compared to placebo [1, 7]: −43.3-−38.5%
- increase in PD-1-negative CD4 T cells as compared to placebo [1, 7]: 3.0-4.9%
- HI GMT, B (B/Brisbane/60/2008; [8]): 44.2
- HI GMT, B (B/Brisbane/60/2008; [9]): 64.8
- HI GMT, B (B/Brisbane/60/2008; [10]): 58.0
- HI GMT ratio, B (B/Brisbane/60/2008; 0.5 mg daily, N = 50): 2.5
- HI GMT ratio, B (B/Brisbane/60/2008; 5 mg weekly, N = 49): 2.2
- HI GMT ratio, B (B/Brisbane/60/2008; 20 mg weekly, N = 49): 2.1
- Percent of subjects with seroconversion, B (B/Brisbane/60/2008; [11]): 27%
- Percent of subjects with seroconversion, B (B/Brisbane/60/2008; [12]): 22%
- Percent of subjects with seroconversion, B (B/Brisbane/60/2008; [13]): 19%
- Percent of subjects with seroconversion, B (B/Brisbane/60/2008; [14]): 40* Percent
- Percent of subjects with seroconversion, B (B/Brisbane/60/2008; [15]): 33%
- Percent of subjects with seroconversion, B (B/Brisbane/60/2008; [16]): 28%
- HI GMT, B (B/Brisbane/60/2008; [17]): 98.4
- HI GMT, B (B/Brisbane/60/2008; [18]): 117.3
- HI GMT, B (B/Brisbane/60/2008; [19]): 99.2
- HI GMT, A/H1N1 [2, 8]: 102.8
- HI GMT, A/H1N1 [2, 9]: 84.2
- HI GMT, A/H1N1 [2, 10]: 90.1
- HI GMT ratio, A/H1N1 ([2]; 0.5 mg daily, N = 50): 2.6
- HI GMT ratio, A/H1N1 ([2]; 5 mg weekly, N = 49): 2.5
- HI GMT ratio, A/H1N1 ([2]; 20 mg weekly, N = 49): 1.8
- Percent of subjects with seroconversion, H1N1 [2, 11]: 27%
- Percent of subjects with seroconversion, H1N1 [2, 12]: 27%
- Percent of subjects with seroconversion, H1N1 [2, 13]: 17%
- Percent of subjects with seroconversion, H1N1 [2, 14]: 42%
- Percent of subjects with seroconversion, H1N1 [2, 15]: 45%
- Percent of subjects with seroconversion, H1N1 [2, 16]: 36%
- HI GMT, A/H1N1 [2, 17]: 190.2
- HI GMT, A/H1N1 [2, 18]: 198.73
- HI GMT, A/H1N1 [2, 19]: 129.7
- HI GMT, A/H3N2 (H3N2 A/Victoria/210/2009; [8]): 106.8
- HI GMT, A/H3N2 (H3N2 A/Victoria/210/2009; [9]): 126.04
- HI GMT, A/H3N2 (H3N2 A/Victoria/210/2009; [10]): 137.1
- HI GMT ratio, A/H3N2 (H3N2 A/Victoria/210/2009; 0.5 mg daily, N = 50): 2.1
- HI GMT ratio, A/H3N2 (H3N2 A/Victoria/210/2009; 5 mg weekly, N = 49): 2.0
- HI GMT ratio, A/H3N2 (H3N2 A/Victoria/210/2009; 20 mg weekly, N = 49): 2.1
- Percent of subjects with seroconversion, H3N2 (H3N2 A/Victoria/210/2009; [11]): 27%
- Percent of subjects with seroconversion, H3N2 (H3N2 A/Victoria/210/2009; [12]): 24%
- Percent of subjects with seroconversion, H3N2 (H3N2 A/Victoria/210/2009; [13]): 25%
- Percent of subjects with seroconversion, H3N2 (H3N2 A/Victoria/210/2009; [14]): 64%
- Percent of subjects with seroconversion, H3N2 (H3N2 A/Victoria/210/2009; [15]): 53%
- Percent of subjects with seroconversion, H3N2 (H3N2 A/Victoria/210/2009; [16]): 71%
- HI GMT, A/H3N2 (H3N2 A/Victoria/210/2009; [17]): 194.4
- HI GMT, A/H3N2 (H3N2 A/Victoria/210/2009; [18]): 223.0
- HI GMT, A/H3N2 (H3N2 A/Victoria/210/2009; [19]): 223.0
- pneumococcal antibody titers compared to placebo (pneumococcal serotypes): 6/7 serotypes were increased
- percentage of PD-1 negative CD4 T cells compared to placebo ([3]; RAD001 cohorts): increased
- percentage of CD4 PD-1 positive T cells ([3]; week 6 and 12, all RAD001 cohorts): decreased from baseline
- percentage of CD8 PD-1 positive cells ([3]; week 6 and 12, two lower dose RAD001 cohorts): decreased from baseline
- Percentage of subjects who seroconvert to heterologous strain A/H3N2 A/Victoria/361/11 ([4]; 0.5 mg daily): 38%
- Percentage of subjects who seroconvert to heterologous strain A/H3N2 A/Victoria/361/11 ([4]; 5 mg weekly): 39%*
- Percentage of subjects who seroconvert to heterologous strain A/H3N2 A/Victoria/361/11 ([4]; 20 mg weekly): 40%*
- increase in HI GMT ratio for heterologous strain versus placebo ([4]; RAD001 cohorts): higher
- H3N2 heterologous strain seroconversion rate ([4]; pooled RAD001 cohorts, versus 20% placebo, p=0.007): 39%
